Data from paper PMC9234961 (Journal of Medicinal Chemistry, 2022).

How the values were obtained:
kinases (468) [1] = target: kinases (468) (Homo sapiens, UniProt Q07002); details: PCTK3 (CDK18); 1000 nM
kinases (468) [2] = target: kinases (468) (Homo sapiens, UniProt Q00536); details: PCTK1 (CDK16); 1000 nM
kinases (468) [3] = target: kinases (468) (Homo sapiens, UniProt P06239); details: LCK; 1000 nM
kinases (468) [4] = target: kinases (468) (Homo sapiens, UniProt Q15759); details: p38-beta (MAPK11); 1000 nM
kinases (468) [5] = target: kinases (468) (Homo sapiens, UniProt P54753); details: EPHB3; 1000 nM
kinases (468) [6] = target: kinases (468) (Homo sapiens, UniProt Q13882); details: BRK (PTK6); 1000 nM
kinases (468) [7] = target: kinases (468) (Homo sapiens, UniProt Q8N568); details: DCAMKL2 (DCLK2); 1000 nM
kinases (468) [8] = target: kinases (468) (Homo sapiens, UniProt Q86V86); details: PIM3; 1000 nM
kinases (468) [9] = target: kinases (468) (Homo sapiens, UniProt P04049); details: RAF1; 1000 nM
kinases (468) [10] = target: kinases (468) (Homo sapiens, UniProt Q06418); details: kinase TYRO3 (Entrez TYRO3); compound concentration 1000 nM
kinases (468) [11] = target: kinases (468) (Homo sapiens, UniProt P29322); details: EPHA8; 1000 nM
kinases (468) [12] = target: kinases (468) (Homo sapiens, UniProt P49137); details: MAPKAPK2; 1000 nM
kinases (468) [13] = target: kinases (468) (Homo sapiens, UniProt P42684); details: ABL2; 1000 nM
kinases (468) [14] = target: kinases (468) (Homo sapiens, UniProt P42336, E545A); details: PIK3CA(E545A); 1000 nM
kinases (468) [15] = target: kinases (468) (Homo sapiens, UniProt P08631); details: HCK; 1000 nM
kinases (468) [16] = target: kinases (468) (Homo sapiens, UniProt Q96D53); details: ADCK4; 1000 nM
kinases (468) [17] = target: kinases (468) (Homo sapiens, UniProt P42336, Q546K); details: PIK3CA(Q546K); 1000 nM
kinases (468) [18] = target: kinases (468) (Homo sapiens, UniProt P42336); details: PIK3CA; 1000 nM
kinases (468) [19] = target: kinases (468) (Homo sapiens, UniProt Q14012); details: CAMK1; 1000 nM
kinases (468) [20] = target: kinases (468) (Homo sapiens, UniProt P50613); details: CDK7; 1000 nM
kinases (468) [21] = target: kinases (468) (Homo sapiens, UniProt Q86Y07); details: kinase VRK2 (Entrez VRK2); compound concentration 1000 nM
kinases (468) [22] = target: kinases (468) (Homo sapiens, UniProt Q92918); details: HPK1 (MAP4K1); 1000 nM
kinases (468) [23] = target: kinases (468) (Homo sapiens, UniProt O14733); details: MKK7 (MAP2K7); 1000 nM
kinases (468) [24] = target: kinases (468) (Homo sapiens, UniProt O00329); details: PIK3CD; 1000 nM
kinases (468) [25] = target: kinases (468) (Homo sapiens, UniProt P53671); details: LIMK2; 1000 nM
kinases (468) [26] = target: kinases (468) (Homo sapiens, UniProt P48729); details: CSNK1A1; 1000 nM
kinases (468) [27] = target: kinases (468) (Plasmodium falciparum, UniProt P62344); details: PFCDPK1(P.falciparum) (CDPK1); 1000 nM
kinases (468) [28] = target: kinases (468) (Homo sapiens, UniProt Q32MK0); details: MLCK (MYLK3); 1000 nM
kinases (468) [29] = target: kinases (468) (Homo sapiens, UniProt Q9H2G2); details: kinase SLK (Entrez SLK); compound concentration 1000 nM
kinases (468) [30] = target: kinases (468) (Homo sapiens, UniProt Q16566); details: CAMK4; 1000 nM
kinases (468) [31] = target: kinases (468) (Homo sapiens, UniProt P23443); details: kinase S6K1 (Entrez RPS6KB1); compound concentration 1000 nM
kinases (468) [32] = target: kinases (468) (Homo sapiens, UniProt Q9Y463); details: DYRK1B; 1000 nM
kinases (468) [33] = target: kinases (468) (Homo sapiens, UniProt Q08881); details: ITK; 1000 nM
kinases (468) [34] = target: kinases (468) (Homo sapiens, UniProt P16591); details: FER; 1000 nM
kinases (468) [35] = target: kinases (468) (Homo sapiens, UniProt Q8N752); details: CSNK1A1L; 1000 nM
Chain of kinases (468) (Homo sapiens, UniProt Q8N752) (Q8N752 whole entry): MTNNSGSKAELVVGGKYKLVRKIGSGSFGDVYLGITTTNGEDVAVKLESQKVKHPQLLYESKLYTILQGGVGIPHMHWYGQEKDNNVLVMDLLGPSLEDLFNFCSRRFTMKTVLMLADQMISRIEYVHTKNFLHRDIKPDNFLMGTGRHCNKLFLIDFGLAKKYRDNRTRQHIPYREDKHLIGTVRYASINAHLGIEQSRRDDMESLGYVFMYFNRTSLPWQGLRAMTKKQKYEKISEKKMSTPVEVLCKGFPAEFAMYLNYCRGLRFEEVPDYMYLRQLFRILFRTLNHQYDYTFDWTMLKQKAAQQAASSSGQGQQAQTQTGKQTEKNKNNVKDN

Chain of kinases (468) (Homo sapiens, UniProt P16591) (P16591 whole entry): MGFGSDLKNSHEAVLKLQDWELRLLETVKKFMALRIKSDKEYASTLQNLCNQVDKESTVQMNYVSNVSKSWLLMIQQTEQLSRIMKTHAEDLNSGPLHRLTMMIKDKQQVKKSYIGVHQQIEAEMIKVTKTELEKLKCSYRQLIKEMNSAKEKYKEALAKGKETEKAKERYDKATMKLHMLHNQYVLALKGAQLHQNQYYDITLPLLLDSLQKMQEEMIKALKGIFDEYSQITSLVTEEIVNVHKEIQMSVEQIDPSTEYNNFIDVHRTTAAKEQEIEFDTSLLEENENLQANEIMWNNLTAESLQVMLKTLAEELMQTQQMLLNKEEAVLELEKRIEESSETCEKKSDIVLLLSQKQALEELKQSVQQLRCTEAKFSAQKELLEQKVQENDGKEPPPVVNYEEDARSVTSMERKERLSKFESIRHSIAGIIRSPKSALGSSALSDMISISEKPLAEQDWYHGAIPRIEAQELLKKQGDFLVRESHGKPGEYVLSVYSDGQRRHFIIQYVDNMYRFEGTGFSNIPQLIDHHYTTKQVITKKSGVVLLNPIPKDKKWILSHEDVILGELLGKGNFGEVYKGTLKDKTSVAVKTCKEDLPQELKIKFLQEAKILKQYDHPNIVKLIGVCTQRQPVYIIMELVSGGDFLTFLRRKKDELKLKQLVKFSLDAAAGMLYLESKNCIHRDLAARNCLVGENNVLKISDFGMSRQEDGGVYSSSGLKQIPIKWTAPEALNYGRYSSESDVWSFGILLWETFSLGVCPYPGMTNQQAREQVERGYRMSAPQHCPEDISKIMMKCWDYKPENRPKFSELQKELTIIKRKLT
Chain of kinases (468) (Homo sapiens, UniProt Q86Y07) (Q86Y07 whole entry): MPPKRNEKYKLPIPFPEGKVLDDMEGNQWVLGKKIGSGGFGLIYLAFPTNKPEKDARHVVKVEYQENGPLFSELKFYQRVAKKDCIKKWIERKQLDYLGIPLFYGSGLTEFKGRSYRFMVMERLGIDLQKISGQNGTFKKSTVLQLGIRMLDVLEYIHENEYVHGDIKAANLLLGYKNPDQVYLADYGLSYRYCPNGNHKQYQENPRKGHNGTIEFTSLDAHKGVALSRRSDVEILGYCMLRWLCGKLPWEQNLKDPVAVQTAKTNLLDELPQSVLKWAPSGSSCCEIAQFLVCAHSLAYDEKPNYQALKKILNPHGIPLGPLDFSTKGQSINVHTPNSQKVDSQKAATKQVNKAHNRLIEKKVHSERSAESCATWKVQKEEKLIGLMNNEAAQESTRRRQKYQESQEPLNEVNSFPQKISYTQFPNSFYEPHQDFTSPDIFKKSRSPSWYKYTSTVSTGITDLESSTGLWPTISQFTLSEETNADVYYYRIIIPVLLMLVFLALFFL
Chain of kinases (468) (Homo sapiens, UniProt Q96D53) (Q96D53 whole entry): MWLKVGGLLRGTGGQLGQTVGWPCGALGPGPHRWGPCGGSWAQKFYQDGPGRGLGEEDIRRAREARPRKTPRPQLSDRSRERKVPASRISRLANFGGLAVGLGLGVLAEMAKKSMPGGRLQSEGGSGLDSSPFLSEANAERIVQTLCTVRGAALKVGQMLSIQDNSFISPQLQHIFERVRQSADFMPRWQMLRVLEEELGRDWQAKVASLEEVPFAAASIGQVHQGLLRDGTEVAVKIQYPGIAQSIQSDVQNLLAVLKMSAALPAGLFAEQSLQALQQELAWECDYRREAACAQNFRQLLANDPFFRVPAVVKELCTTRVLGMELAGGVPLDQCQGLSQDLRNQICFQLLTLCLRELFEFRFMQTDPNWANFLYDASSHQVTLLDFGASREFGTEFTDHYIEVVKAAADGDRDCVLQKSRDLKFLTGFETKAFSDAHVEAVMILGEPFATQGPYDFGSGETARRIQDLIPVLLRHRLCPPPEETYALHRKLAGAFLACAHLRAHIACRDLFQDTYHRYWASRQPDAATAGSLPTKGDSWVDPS
Chain of kinases (468) (Homo sapiens, UniProt P23443) (P23443 whole entry): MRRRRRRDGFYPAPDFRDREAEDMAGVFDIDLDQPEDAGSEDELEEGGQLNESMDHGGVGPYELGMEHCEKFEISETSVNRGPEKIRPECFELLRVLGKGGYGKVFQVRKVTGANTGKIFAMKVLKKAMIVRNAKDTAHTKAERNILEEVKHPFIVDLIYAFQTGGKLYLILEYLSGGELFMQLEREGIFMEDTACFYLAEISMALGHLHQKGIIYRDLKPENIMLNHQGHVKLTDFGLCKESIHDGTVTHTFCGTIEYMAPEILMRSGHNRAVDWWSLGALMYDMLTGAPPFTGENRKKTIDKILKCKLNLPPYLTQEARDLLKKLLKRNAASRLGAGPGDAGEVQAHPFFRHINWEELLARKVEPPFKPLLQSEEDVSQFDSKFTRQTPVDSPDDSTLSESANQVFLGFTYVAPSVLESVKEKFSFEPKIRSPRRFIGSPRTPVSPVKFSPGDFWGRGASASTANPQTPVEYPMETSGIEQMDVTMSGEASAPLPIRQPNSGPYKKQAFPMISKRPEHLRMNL
Chain of kinases (468) (Plasmodium falciparum, UniProt P62344) (P62344 whole entry): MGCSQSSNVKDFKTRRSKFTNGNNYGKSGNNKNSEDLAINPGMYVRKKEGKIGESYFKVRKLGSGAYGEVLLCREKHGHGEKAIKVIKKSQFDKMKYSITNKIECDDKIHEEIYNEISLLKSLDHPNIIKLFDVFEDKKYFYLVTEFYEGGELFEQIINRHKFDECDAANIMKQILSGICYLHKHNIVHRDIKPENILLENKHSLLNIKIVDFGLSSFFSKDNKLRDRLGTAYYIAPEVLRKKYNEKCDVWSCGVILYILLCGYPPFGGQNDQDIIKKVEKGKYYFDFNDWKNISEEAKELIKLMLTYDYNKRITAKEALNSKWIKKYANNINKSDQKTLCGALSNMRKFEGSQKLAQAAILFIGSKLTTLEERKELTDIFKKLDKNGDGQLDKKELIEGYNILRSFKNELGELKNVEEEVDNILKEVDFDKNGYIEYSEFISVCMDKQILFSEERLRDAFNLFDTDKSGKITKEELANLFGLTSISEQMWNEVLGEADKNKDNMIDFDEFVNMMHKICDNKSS
Chain of kinases (468) (Homo sapiens, UniProt Q14012) (Q14012 whole entry): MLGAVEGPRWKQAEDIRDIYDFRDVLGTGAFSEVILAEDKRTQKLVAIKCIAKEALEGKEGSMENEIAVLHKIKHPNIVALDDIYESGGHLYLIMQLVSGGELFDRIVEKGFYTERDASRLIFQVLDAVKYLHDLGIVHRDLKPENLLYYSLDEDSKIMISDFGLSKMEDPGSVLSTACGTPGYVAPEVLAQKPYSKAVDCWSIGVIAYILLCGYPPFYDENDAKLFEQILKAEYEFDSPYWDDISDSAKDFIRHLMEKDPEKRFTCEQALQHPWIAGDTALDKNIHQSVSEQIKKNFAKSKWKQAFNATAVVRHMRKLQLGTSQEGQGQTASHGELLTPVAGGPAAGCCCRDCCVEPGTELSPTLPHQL
Chain of kinases (468) (Homo sapiens, UniProt P53671) (P53671 whole entry): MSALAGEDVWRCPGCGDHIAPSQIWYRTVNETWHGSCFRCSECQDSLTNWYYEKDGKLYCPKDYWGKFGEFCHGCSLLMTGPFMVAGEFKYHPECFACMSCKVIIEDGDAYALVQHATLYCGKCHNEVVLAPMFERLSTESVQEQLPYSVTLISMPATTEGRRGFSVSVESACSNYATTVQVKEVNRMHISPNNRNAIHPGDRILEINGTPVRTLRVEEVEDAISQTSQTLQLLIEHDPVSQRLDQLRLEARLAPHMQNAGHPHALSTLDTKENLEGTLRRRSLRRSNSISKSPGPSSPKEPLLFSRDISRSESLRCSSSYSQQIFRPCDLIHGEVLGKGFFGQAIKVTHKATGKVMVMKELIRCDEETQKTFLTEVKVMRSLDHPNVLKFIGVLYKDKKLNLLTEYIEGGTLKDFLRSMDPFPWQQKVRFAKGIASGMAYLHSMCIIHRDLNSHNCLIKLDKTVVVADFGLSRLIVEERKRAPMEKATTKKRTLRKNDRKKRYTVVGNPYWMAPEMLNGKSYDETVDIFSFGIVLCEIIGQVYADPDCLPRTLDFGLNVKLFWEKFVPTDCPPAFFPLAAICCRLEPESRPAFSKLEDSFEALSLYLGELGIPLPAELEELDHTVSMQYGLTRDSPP
Chain of kinases (468) (Homo sapiens, UniProt Q13882) (Q13882 whole entry): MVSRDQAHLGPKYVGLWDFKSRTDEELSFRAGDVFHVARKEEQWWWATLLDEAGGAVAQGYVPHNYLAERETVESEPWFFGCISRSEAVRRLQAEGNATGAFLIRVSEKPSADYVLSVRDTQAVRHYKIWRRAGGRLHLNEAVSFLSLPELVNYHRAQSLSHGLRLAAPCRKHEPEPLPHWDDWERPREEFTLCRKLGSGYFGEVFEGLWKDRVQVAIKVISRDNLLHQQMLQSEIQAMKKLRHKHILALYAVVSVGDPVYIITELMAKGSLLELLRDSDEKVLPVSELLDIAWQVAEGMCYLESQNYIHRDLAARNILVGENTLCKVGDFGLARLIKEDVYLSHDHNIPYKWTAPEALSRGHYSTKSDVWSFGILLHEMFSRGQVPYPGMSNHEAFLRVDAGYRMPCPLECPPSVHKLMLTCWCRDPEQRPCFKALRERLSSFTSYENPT

C[C@H]1C[C@@H](O)CN(c2ncc(Cl)c(Nc3ccc4c(c3)c3c(c(=O)n4C)OCC(F)(F)[C@H](C4CC4)N3)n2)C1 [CCT373566_9A]
Percent Control (kinases (468) [1]): 99% | Percent Control (kinases (468) [2]): 100% | Percent Control (kinases (468) [3]): 100% | Percent Control (kinases (468) [4]): 100% | Percent Control (kinases (468) [5]): 100% | Percent Control (kinases (468) [6]): 100% | Percent Control (kinases (468) [7]): 100% | Percent Control (kinases (468) [8]): 100% | Percent Control (kinases (468) [9]): 92% | Percent Control (kinases (468) [10]): 100% | Percent Control (kinases (468) [11]): 100% | Percent Control (kinases (468) [12]): 97% | Percent Control (kinases (468) [13]): 100% | Percent Control (kinases (468) [14]): 100% | Percent Control (kinases (468) [15]): 98% | Percent Control (kinases (468) [16]): 93% | Percent Control (kinases (468) [17]): 89% | Percent Control (kinases (468) [18]): 100% | Percent Control (kinases (468) [19]): 89% | Percent Control (kinases (468) [20]): 93% | Percent Control (kinases (468) [21]): 89% | Percent Control (kinases (468) [22]): 82% | Percent Control (kinases (468) [23]): 91% | Percent Control (kinases (468) [24]): 90% | Percent Control (kinases (468) [25]): 100% | Percent Control (kinases (468) [26]): 100% | Percent Control (kinases (468) [27]): 69% | Percent Control (kinases (468) [28]): 100% | Percent Control (kinases (468) [29]): 100% | Percent Control (kinases (468) [30]): 100% | Percent Control (kinases (468) [31]): 85% | Percent Control (kinases (468) [32]): 87% | Percent Control (kinases (468) [33]): 100% | Percent Control (kinases (468) [34]): 100% | Percent Control (kinases (468) [35]): 96%
